System: PC-3-KQ and PC-3-KR cells
Assay: RNA-sequencing and differential gene expression
Format: cell-based, human
Details: for logFC: KQ-Control vs KQ-NTZ

## CC(=O)Oc1ccccc1C(=O)Nc1ncc([N+](=O)[O-])s1 [Nitazoxanide]
Gene ANKRD36C
  change of NTZ treatment: down
Gene ANKRD37
  logFC: 0.9125
Gene ANXA8
  logFC: 0.7906
Gene ANXA8L1
  change of NTZ treatment: down
Gene ARG2
  change of NTZ treatment: up
  logFC: 2.138
Gene ARL10
  change of NTZ treatment: down
Gene ARSK
  change of NTZ treatment: up
  logFC: 0.7653
Gene ASB2
  change of NTZ treatment: down
Gene ATP2A3
  logFC: 1.284
Gene BRINP2
  change of NTZ treatment: down
Gene BTBD11
  change of NTZ treatment: down
Gene BTN3A3
  change of NTZ treatment: up
Gene CAPN12
  logFC: 0.767
Gene CAPSL
  change of NTZ treatment: down
Gene CCNA1
  logFC: 0.9046
Gene CEP19
  change of NTZ treatment: down
Gene CFB
  logFC: 0.9221
Gene CNTNAP3B
  change of NTZ treatment: down
Gene COL4A3
  logFC: 2.258
Gene COL4A4
  logFC: 0.8129
Gene CSF1R
  change of NTZ treatment: up
Gene CXCL5
  change of NTZ treatment: down
Gene CYP1B1
  change of NTZ treatment: up
Gene CYP2E1
  change of NTZ treatment: up
Gene CYP8B1
  change of NTZ treatment: up
  logFC: 1.238
Gene CYSTM1
  change of NTZ treatment: up
  logFC: 0.6246
Gene DEPTOR
  change of NTZ treatment: down
Gene DISP1
  change of NTZ treatment: up
  logFC: 0.6346
Gene DMPK
  change of NTZ treatment: up
  logFC: 0.6319
Gene DRP2
  change of NTZ treatment: down
Gene ECM2
  change of NTZ treatment: down
Gene ESPN
  change of NTZ treatment: up
Gene FA2H
  logFC: 1.574
Gene FAM83D
  change of NTZ treatment: down
Gene FAM178B
  logFC: 1.11
Gene FAM186B
  change of NTZ treatment: down
Gene FANCI
  change of NTZ treatment: down
Gene FANCL
  change of NTZ treatment: down
Gene FCGBP
  change of NTZ treatment: down
Gene FER1L6
  logFC: 0.6222
Gene FIBCD1
  logFC: 1.28
Gene FLI1
  change of NTZ treatment: down
Gene FLRT1
  change of NTZ treatment: down
Gene FRY
  change of NTZ treatment: up
  logFC: 1.204
Gene FSD2
  change of NTZ treatment: down
Gene FTH1
  logFC: 1.218
Gene FUT3
  logFC: 0.7626
Gene FXYD3
  logFC: 0.8317
Gene FZD4
  change of NTZ treatment: down
Gene GALNT12
  logFC: 0.8862
Gene GCNT3
  change of NTZ treatment: up
  logFC: 2.701
Gene GDPD3
  logFC: 1.109
Gene HAS3
  change of NTZ treatment: down
Gene HSPB8
  change of NTZ treatment: up
  logFC: 1.784
Gene IFITM10
  change of NTZ treatment: up
Gene IGDCC4
  change of NTZ treatment: up
  logFC: 1.493
Gene IGF2BP1
  change of NTZ treatment: down
Gene IL1RN
  change of NTZ treatment: up
Gene IL36RN
  logFC: 0.6398
Gene INHBA
  change of NTZ treatment: down
Gene KDELR2
  change of NTZ treatment: up
  logFC: 0.621
Gene KIAA0319
  logFC: 2.322
Gene KIAA1755
  change of NTZ treatment: down
Gene KLHDC7B
  logFC: 1.286
Gene LOC105374299
  logFC: 1.732
Gene LONRF2
  change of NTZ treatment: down
Gene LRRK1
  logFC: 0.8715
Gene LTB
  change of NTZ treatment: down
Gene MAP2
  change of NTZ treatment: up
  logFC: 0.8904
Gene MCM4
  change of NTZ treatment: down
Gene MEF2C
  change of NTZ treatment: up
Gene MEOX1
  change of NTZ treatment: down
Gene METRNL
  change of NTZ treatment: up
Gene MFSD2A
  logFC: 0.6152
Gene MINAR1
  logFC: 1.165
Gene MMP9
  change of NTZ treatment: down
Gene MROH8
  change of NTZ treatment: down
Gene MUC4
  change of NTZ treatment: up
  logFC: 1.575
Gene MVP
  logFC: 0.7778
Gene MYH7B
  change of NTZ treatment: down
Gene NAV1
  change of NTZ treatment: up
  logFC: 1.226
Gene NECTIN4
  logFC: 1.852
Gene NKD1
  change of NTZ treatment: down
Gene NLRC5
  logFC: 0.8508
Gene NR4A2
  change of NTZ treatment: up
Gene NT5E
  change of NTZ treatment: up
  logFC: 0.5964
Gene PCDH18
  change of NTZ treatment: down
Gene PDGFA
  logFC: 0.7622
Gene PDZK1
  change of NTZ treatment: up
  logFC: 0.8579
Gene PGAM4
  change of NTZ treatment: down
Gene PHOSPHO2
  change of NTZ treatment: down
Gene PIANP
  change of NTZ treatment: down
Gene PKIA
  logFC: 0.8539
Gene PLEKHG1
  change of NTZ treatment: up
Gene PRKAR1B
  logFC: 0.8008
Gene PRKDC
  change of NTZ treatment: down
Gene PROS1
  change of NTZ treatment: up
  logFC: 0.9134
Gene PRR16
  change of NTZ treatment: down
Gene PRRT4
  change of NTZ treatment: down
Gene RBL1
  change of NTZ treatment: down
Gene RMDN2
  logFC: 0.9051
Gene RND1
  change of NTZ treatment: up
Gene RP1L1
  change of NTZ treatment: down
Gene S100A6
  change of NTZ treatment: up
  logFC: 0.6427
Gene SAT1
  logFC: 0.7952
Gene SDCBP2
  logFC: 1.238
Gene SERPINA5
  change of NTZ treatment: down
Gene SERPINB3
  change of NTZ treatment: down
Gene SERPINB4
  change of NTZ treatment: down
Gene SERPIND1
  change of NTZ treatment: down
Gene SGK3
  change of NTZ treatment: up
Gene SHISA3
  change of NTZ treatment: down
Gene SLC41A2
  change of NTZ treatment: up
  logFC: 0.8444
Gene SLFN11
  change of NTZ treatment: up
Gene SMCO4
  change of NTZ treatment: up
Gene SPOCK2
  change of NTZ treatment: up
  logFC: 1.756
Gene SRPX
  logFC: 0.5983
Gene STK32A
  logFC: 1.274
Gene SYN3
  logFC: 1.227
Gene TBX2
  logFC: 0.6055
Gene TCN1
  change of NTZ treatment: down
Gene TJP3
  change of NTZ treatment: up
  logFC: 0.6134
Gene TMEM140
  change of NTZ treatment: up
Gene TMEM269
  change of NTZ treatment: up
  logFC: 0.7715
Gene TMOD1
  logFC: 1.793
Gene TMPRSS2
  logFC: 1.205
Gene TNFRSF6B
  change of NTZ treatment: down
Gene TNFRSF11B
  change of NTZ treatment: down
Gene TNFSF14
  logFC: 1.643
Gene TRIM31
  change of NTZ treatment: up
  logFC: 1.207
Gene TTC9
  change of NTZ treatment: up
Gene TTC30B
  change of NTZ treatment: down
Gene UGT2B7
  logFC: 1.608
Gene WHRN
  logFC: 0.869
Gene WNT4
  logFC: 1.78
Gene WNT9A
  change of NTZ treatment: up
Gene ZNF302
  change of NTZ treatment: down
